Test results: US20240182531A1, “KV1.3 Blockers” (priority 2021, published 2024)
Where a SMILES comes first, the peptide text is derived from it. Bridges are numbered along the chain shown (N, C = ends). [ ]: non-standard residue; d: D form. Nle = CCCC[C@H](N)C(=O)O; Orn = NCCC[C@H](N)C(=O)O; Dab = NCC[C@H](N)C(=O)O; Dap = NC[C@H](N)C(=O)O

Legend:
[1] = biological target: T1, human Kv1.3 voltage-gated K+ channel (Homo sapiens, UniProt P22001); assay: Kv1.3 blocker activity in FLIPR thallium assay; format: cell-based
T1 construct: host or cells: CHO-DUKX
T1 sequence (P22001 whole entry): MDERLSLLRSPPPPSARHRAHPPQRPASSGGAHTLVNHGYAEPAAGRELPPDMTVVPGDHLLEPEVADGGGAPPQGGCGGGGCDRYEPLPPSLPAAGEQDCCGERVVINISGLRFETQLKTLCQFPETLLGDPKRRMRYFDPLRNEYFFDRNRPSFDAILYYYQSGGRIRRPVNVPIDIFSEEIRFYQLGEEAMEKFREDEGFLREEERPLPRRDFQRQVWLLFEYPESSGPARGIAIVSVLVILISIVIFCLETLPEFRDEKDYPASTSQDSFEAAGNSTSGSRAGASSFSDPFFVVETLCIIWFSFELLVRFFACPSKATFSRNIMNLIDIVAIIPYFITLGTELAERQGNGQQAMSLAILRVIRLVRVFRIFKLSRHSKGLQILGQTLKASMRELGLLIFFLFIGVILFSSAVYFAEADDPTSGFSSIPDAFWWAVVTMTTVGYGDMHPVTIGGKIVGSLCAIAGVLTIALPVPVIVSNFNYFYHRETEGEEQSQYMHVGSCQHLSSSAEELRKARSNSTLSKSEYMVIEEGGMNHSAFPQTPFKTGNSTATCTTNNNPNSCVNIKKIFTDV
Procedure: A human Kv1.3 voltage-gated K+ channel cell line was purchased from Perkin Elmer (#TDS-AX-010-C-1). The cell line is based on CHO-DUKX cells stably transfected with the human Kv1.3 voltage-gated K+ channel.
The cell line was grown in MEMα with nucleotides, GlutaMAX (Gibco #32571028), 10% Foetal Bovine Serum (FBS), 0.4 mg/ml Geneticin, 100 units/ml Penicillin, and 100 μg/ml Streptomycin and seeded at 10.000 cells/well in black poly-D-lysine-coated 96 well plates.
The FluxOR™ Potassium Ion Channel Assay (Invitrogen #F10016) was used to quantitate flux of thallium ions into the cells as a response to Kv1.3 activation with a stimulus buffer causes depolarization of the cell membrane, thereby generating a fluorescent signal, proportional to channel activity. The assay was performed as described by the assay kit manufacturer including a compound pre-incubation step (30 min, 37° C., 5% CO2) in assay buffer containing 0.02% W/v casein from bovine milk (Sigma #C4765) prior to cell membrane depolarization using a final stimuli buffer composition corresponding to 0.2× FluxOR™ chloride-free buffer, 5 mM K2SO4, 1 mM Tl2SO4. The fluorescence responses were recorded and quantified (maximum response at 50 s, 37° C.) using the FLIPR® Tetra High Throughput Screening System (Molecular Devices, Inc.).
IC50 can be regarded as a measure of potency of inhibition for the respective compound. The IC50 value is a measure of the concentration of an inhibitor required to achieve half of that compound's maximal inhibition of ion channel activity in a given assay.

human Kv1.1 = biological target: T2, human Kv1.1 (Homo sapiens, UniProt Q09470); assay: cell-based; details: ratio of patch clamp IC50 values
T2 construct: expressed in transfected cells; host or cells: CHO
T2 sequence (Q09470 whole entry): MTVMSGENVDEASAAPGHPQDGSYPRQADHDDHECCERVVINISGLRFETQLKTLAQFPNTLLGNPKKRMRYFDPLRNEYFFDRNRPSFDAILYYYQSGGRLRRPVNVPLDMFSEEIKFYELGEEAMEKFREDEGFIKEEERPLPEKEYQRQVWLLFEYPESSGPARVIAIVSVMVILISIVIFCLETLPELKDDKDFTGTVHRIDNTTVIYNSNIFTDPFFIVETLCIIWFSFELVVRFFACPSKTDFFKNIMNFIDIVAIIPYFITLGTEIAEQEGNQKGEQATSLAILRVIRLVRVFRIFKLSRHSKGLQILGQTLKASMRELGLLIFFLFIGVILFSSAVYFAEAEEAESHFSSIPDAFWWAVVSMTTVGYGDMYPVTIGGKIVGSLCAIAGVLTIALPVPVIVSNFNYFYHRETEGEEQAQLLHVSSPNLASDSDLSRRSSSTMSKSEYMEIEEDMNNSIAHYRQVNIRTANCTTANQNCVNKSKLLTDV

human Kv1.2 = biological target: T3, human Kv1.2 (Homo sapiens, UniProt P16389); assay: cell-based; details: ratio of patch clamp IC50 values
T3 construct: expressed in transfected cells; host or cells: CHO
T3 sequence (P16389 whole entry): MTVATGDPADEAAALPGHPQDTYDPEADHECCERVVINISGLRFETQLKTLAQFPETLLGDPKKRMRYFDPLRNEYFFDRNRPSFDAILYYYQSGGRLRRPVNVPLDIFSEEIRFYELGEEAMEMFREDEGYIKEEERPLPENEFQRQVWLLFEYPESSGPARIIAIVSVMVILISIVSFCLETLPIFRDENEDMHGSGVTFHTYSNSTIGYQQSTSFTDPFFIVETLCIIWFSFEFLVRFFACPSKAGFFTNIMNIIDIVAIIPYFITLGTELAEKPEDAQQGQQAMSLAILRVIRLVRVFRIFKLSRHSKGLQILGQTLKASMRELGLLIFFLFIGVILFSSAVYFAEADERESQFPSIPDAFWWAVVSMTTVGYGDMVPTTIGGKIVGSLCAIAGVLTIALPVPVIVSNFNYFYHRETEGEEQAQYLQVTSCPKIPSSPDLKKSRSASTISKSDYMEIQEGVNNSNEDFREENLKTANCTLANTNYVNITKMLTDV

human Kv1.6 = biological target: T4, human Kv1.6 (Homo sapiens, UniProt P17658); assay: cell-based; details: ratio of patch clamp IC50 values
T4 construct: expressed in transfected cells; host or cells: CHO
T4 sequence (P17658 whole entry): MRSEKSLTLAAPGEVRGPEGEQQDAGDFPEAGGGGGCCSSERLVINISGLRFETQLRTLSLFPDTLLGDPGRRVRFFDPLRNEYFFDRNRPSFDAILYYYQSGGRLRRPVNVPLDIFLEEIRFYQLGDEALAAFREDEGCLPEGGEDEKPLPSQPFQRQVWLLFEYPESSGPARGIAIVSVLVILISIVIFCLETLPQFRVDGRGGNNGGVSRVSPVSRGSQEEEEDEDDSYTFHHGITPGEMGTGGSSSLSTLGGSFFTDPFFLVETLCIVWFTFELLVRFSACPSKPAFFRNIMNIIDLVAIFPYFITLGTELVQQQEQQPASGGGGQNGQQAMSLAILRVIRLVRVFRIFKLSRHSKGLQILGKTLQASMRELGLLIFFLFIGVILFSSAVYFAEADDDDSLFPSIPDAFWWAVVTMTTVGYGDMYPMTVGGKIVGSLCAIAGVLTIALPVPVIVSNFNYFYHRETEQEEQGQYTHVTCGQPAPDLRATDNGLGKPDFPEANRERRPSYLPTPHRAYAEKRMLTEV

Rat whole blood = Rat whole blood (Rattus norvegicus, UniProt P15384); format: cell-based; details: IL-17A release, thapsigargin, 24 Hr, at least 2 replicates
Chain of Rat whole blood (P15384 whole entry): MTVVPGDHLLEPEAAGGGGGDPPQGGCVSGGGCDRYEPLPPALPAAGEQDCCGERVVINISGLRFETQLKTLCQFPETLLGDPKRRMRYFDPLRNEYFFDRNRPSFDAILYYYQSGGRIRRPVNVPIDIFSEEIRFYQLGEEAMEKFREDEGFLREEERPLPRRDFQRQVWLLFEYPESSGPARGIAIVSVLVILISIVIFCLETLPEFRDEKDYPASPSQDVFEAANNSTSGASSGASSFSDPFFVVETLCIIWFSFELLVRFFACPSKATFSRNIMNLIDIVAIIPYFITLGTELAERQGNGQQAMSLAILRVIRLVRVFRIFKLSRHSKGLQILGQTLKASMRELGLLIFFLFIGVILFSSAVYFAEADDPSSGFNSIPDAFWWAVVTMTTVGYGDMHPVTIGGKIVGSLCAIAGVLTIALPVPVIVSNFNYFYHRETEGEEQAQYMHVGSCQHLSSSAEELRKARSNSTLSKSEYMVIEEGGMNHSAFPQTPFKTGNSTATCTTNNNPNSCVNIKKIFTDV

[2] = system: KLH ear inflammation model in rats; format: in vivo, rat; details: 100 nmol/kg SC 24 hrs prior to KLH ear challenge; +/− SD

Row | Compound | IC50 [1] [nM] | Selectivity ratio Kv1.1/Kv1.3 (human Kv1.1) | Selectivity ratio Kv1.2/Kv1.3 (human Kv1.2) | Selectivity ratio Kv1.6/Kv1.3 (human Kv1.6) | IC50 (Rat whole blood) [nM] | % inhibition of ear thickness (AUC of Δ ear thickness 0-48 hours) [2]
1 | CCCC[C@H](NC(=O)[C@@H]1CCCN1)C(=O)N[C@@H](CCC(=O)O)C(=O)N[C@@H](CCCC)C(=O)N[C@@H](CCCNC(=N)N)C(=O)N[C@H]1CSSC[C@@H]2NC(=O)[C@H](CCCCN)NC(=O)CNC(=O)[C@H](Cc3ccccc3)NC(=O)[C@H]([C@@H](C)CC)NC(=O)[C@H](CO)NC(=O)CNC(=O)[C@H]([C@@H](C)CC)NC(=O)[C@H](C)NC(=O)[C@H](C)NC(=O)[C@H](CC(C)C)NC(=O)[C@@H]3CSSC[C@@H](C(=O)N[C@@H](Cc4ccc(O)cc4)C(=O)N4CCC[C@H]4C(=O)N[C@@H](CCCNC(=N)N)C(=O)O)NC(=O)[C@H](CCCCN)NC(=O)[C@H](CSSC[C@H](NC(=O)[C@H](CCC(=O)O)NC(=O)[C@H](C(C)C)NC(=O)[C@H](CO)NC(=O)[C@H](C)NC(=O)[C@H](Cc4ccc(O)cc4)NC1=O)C(=O)N[C@@H](CCCCN)C(=O)N[C@@H](CCC(N)=O)C(=O)N[C@@H](CCCCN)C(=O)N3)NC(=O)[C@H](CCCCN)NC(=O)[C@H](CCCCN)NC(=O)[C@H](CC(N)=O)NC(=O)[C@H](CCCC)NC2=O [compound 5] (H-P[Nle]E[Nle]RCYASVECKQKCLAAIGSIFGKC[Nle]NKKCKCYPR-OH; disulfide 6-27, 12-32, 16-34) | 0.18 | – | – | – | – | –
2 | CCCC[C@H](NC(=O)[C@@H]1CCCN1)C(=O)N[C@@H](CCC(=O)O)C(=O)N[C@@H](CCCC)C(=O)N[C@@H](CCCNC(=N)N)C(=O)N[C@H]1CSSC[C@@H]2NC(=O)[C@H](CCCCN)NC(=O)CNC(=O)[C@H](Cc3ccccc3)NC(=O)[C@H]([C@@H](C)CC)NC(=O)[C@H](CO)NC(=O)CNC(=O)[C@H]([C@@H](C)CC)NC(=O)[C@H](C)NC(=O)[C@H](C)NC(=O)[C@H](CC(C)C)NC(=O)[C@@H]3CSSC[C@@H](C(=O)N[C@@H](Cc4ccc(O)cc4)C(=O)N4CCC[C@H]4C(=O)N[C@@H](CCCNC(=N)N)C(=O)O)NC(=O)[C@H](CCCCN)NC(=O)[C@H](CSSC[C@H](NC(=O)[C@H](CCC(=O)O)NC(=O)[C@H](C(C)C)NC(=O)[C@H](CCCN)NC(=O)[C@H](C)NC(=O)[C@H](CO)NC1=O)C(=O)N[C@@H](CCCCN)C(=O)N[C@@H](CCC(N)=O)C(=O)N[C@@H](CCCCN)C(=O)N3)NC(=O)[C@H](CCCCN)NC(=O)[C@H](CCCCN)NC(=O)[C@H](CC(N)=O)NC(=O)[C@H](CCCC)NC2=O [compound 6] (H-P[Nle]E[Nle]RCSA[Orn]VECKQKCLAAIGSIFGKC[Nle]NKKCKCYPR-OH; disulfide 6-27, 12-32, 16-34) | 33 | – | – | – | – | –
3 | CCCC[C@H](NC(=O)[C@@H]1CCCN1)C(=O)N[C@@H](CCC(=O)O)C(=O)N[C@@H](CCCC)C(=O)N[C@@H](CCCNC(=N)N)C(=O)N[C@H]1CSSC[C@@H]2NC(=O)[C@H](CCCCN)NC(=O)CNC(=O)[C@H](Cc3ccccc3)NC(=O)[C@H]([C@@H](C)CC)NC(=O)[C@H](CO)NC(=O)CNC(=O)[C@H]([C@@H](C)CC)NC(=O)[C@H](C)NC(=O)[C@H](C)NC(=O)[C@H](CC(C)C)NC(=O)[C@@H]3CSSC[C@@H](C(=O)N[C@@H](Cc4ccc(O)cc4)C(=O)N4CCC[C@H]4C(=O)N[C@@H](CCCNC(=N)N)C(=O)O)NC(=O)[C@H](CCCCN)NC(=O)[C@H](CSSC[C@H](NC(=O)[C@H](CCC(=O)O)NC(=O)[C@H](C(C)C)NC(=O)[C@H](CO)NC(=O)[C@H](C)NC(=O)[C@H](CN)NC1=O)C(=O)N[C@@H](CCCCN)C(=O)N[C@@H](CCC(N)=O)C(=O)N[C@@H](CCCCN)C(=O)N3)NC(=O)[C@H](CCCCN)NC(=O)[C@H](CCCCN)NC(=O)[C@H](CC(N)=O)NC(=O)[C@H](CCCC)NC2=O [compound 7] (H-P[Nle]E[Nle]RC[Dap]ASVECKQKCLAAIGSIFGKC[Nle]NKKCKCYPR-OH; disulfide 6-27, 12-32, 16-34) | 0.28 | – | – | – | – | –
4 | CCCC[C@H](NC(=O)[C@@H]1CCCN1)C(=O)N[C@@H](CCC(=O)O)C(=O)N[C@@H](CCCC)C(=O)N[C@@H](CCCNC(=N)N)C(=O)N[C@H]1CSSC[C@@H]2NC(=O)[C@H](CCCCN)NC(=O)CNC(=O)[C@H](Cc3ccccc3)NC(=O)[C@H]([C@@H](C)CC)NC(=O)[C@H](CO)NC(=O)CNC(=O)[C@H]([C@@H](C)CC)NC(=O)[C@H](C)NC(=O)[C@H](C)NC(=O)[C@H](CC(C)C)NC(=O)[C@@H]3CSSC[C@@H](C(=O)N[C@@H](Cc4ccc(O)cc4)C(=O)N4CCC[C@H]4C(=O)N[C@@H](CCCNC(=N)N)C(=O)O)NC(=O)[C@H](CCCCN)NC(=O)[C@H](CSSC[C@H](NC(=O)[C@H](CCC(=O)O)NC(=O)[C@H](C(C)C)NC(=O)[C@H](CO)NC(=O)[C@H](C)NC(=O)[C@H](CCCN)NC1=O)C(=O)N[C@@H](CCCCN)C(=O)N[C@@H](CCC(N)=O)C(=O)N[C@@H](CCCCN)C(=O)N3)NC(=O)[C@H](CCCCN)NC(=O)[C@H](CCCCN)NC(=O)[C@H](CC(N)=O)NC(=O)[C@H](CCCC)NC2=O [compound 2] (H-P[Nle]E[Nle]RC[Orn]ASVECKQKCLAAIGSIFGKC[Nle]NKKCKCYPR-OH; disulfide 6-27, 12-32, 16-34) | 0.12 | – | – | – | – | –
5 | CC[C@H](C)[C@@H]1NC(=O)[C@H](C)NC(=O)[C@H](C)NC(=O)[C@H](CC(C)C)NC(=O)[C@@H]2CSSC[C@@H](C(=O)N[C@@H](Cc3ccc(O)cc3)C(=O)N3CCC[C@H]3C(=O)N[C@@H](CCCNC(=N)N)C(N)=O)NC(=O)[C@H](CCCCN)NC(=O)[C@@H]3CSSC[C@H](NC(=O)[C@H](CCC(=O)O)NC(=O)[C@H](C(C)C)NC(=O)[C@H](CO)NC(=O)[C@H](C)NC(=O)[C@H](CO)NC(=O)[C@@H](NC(=O)[C@H](CCCNC(=N)N)NC(=O)[C@H](CCSC)NC(=O)[C@H](CC(=O)O)NC(=O)[C@H](CCSC)NC(=O)[C@@H](N)CC(N)=O)CSSC[C@H](NC(=O)[C@H](CCCCN)NC(=O)CNC(=O)[C@H](Cc4ccccc4)NC(=O)[C@H]([C@@H](C)CC)NC(=O)[C@H](CO)NC(=O)CNC1=O)C(=O)N[C@@H](CCSC)C(=O)N[C@@H](CC(N)=O)C(=O)N[C@@H](CCCCN)C(=O)N[C@@H](CCCCN)C(=O)N3)C(=O)N[C@@H](CCCCN)C(=O)N[C@@H](CCC(N)=O)C(=O)N[C@@H](CCCCN)C(=O)N2 [compound 56] (H-NMDMRCSASVECKQKCLAAIGSIFGKCMNKKCKCYPR-NH2; disulfide 6-27, 12-32, 16-34) | – | >27500 | 803 | >27500 | 0.69 | 25.1 (+/−6.3) %
6 | CCCC[C@H](NC(=O)[C@@H]1CCCN1)C(=O)N[C@@H](CCC(=O)O)C(=O)N[C@@H](CCCC)C(=O)N[C@@H](CCCNC(=N)N)C(=O)N[C@H]1CSSC[C@@H]2NC(=O)[C@H](CCCCN)NC(=O)CNC(=O)[C@H](Cc3ccccc3)NC(=O)[C@H]([C@@H](C)CC)NC(=O)[C@H](CO)NC(=O)CNC(=O)[C@H]([C@@H](C)CC)NC(=O)[C@H](C)NC(=O)[C@H](C)NC(=O)[C@H](CC(C)C)NC(=O)[C@@H]3CSSC[C@@H](C(=O)N[C@@H](Cc4ccc(O)cc4)C(=O)N4CCC[C@H]4C(=O)N[C@@H](CCCNC(=N)N)C(N)=O)NC(=O)[C@H](CCCCN)NC(=O)[C@H](CSSC[C@H](NC(=O)[C@H](CCC(=O)O)NC(=O)[C@H](C(C)C)NC(=O)[C@H](CO)NC(=O)[C@H](C)NC(=O)[C@H](CCN)NC1=O)C(=O)N[C@@H](C)C(=O)N[C@@H](CCC(N)=O)C(=O)N[C@@H](CO)C(=O)N3)NC(=O)[C@H](CCCCN)NC(=O)CNC(=O)[C@H](CC(N)=O)NC(=O)[C@H](CCCC)NC2=O [compound 10] (H-P[Nle]E[Nle]RC[Dab]ASVECAQSCLAAIGSIFGKC[Nle]NGKCKCYPR-NH2; disulfide 6-27, 12-32, 16-34) | 0.33 | – | – | – | – | –
7 | CCCC[C@@H]1NC(=O)[C@@H]2CSSC[C@H](NC(=O)[C@H](CCCNC(=N)N)NC(=O)[C@H](CCCC)NC(=O)[C@H](CC(=O)O)NC(=O)[C@@H](NC(=O)[C@@H](N)CC(N)=O)[C@@H](C)CC)C(=O)N[C@@H](CO)C(=O)N[C@@H](C)C(=O)N[C@@H](CO)C(=O)N[C@@H](C(C)C)C(=O)N[C@@H](CCC(=O)O)C(=O)N[C@H]3CSSC[C@H](NC(=O)[C@H](CCCCN)NC(=O)[C@H](CCCCN)NC(=O)[C@H](CC(N)=O)NC1=O)C(=O)N[C@@H](CCCCN)C(=O)N[C@H](C(=O)N[C@@H](Cc1ccc(O)cc1)C(=O)N1CCC[C@H]1C(=O)N[C@@H](CCCNC(=N)N)C(=O)O)CSSC[C@H](NC(=O)[C@H](CCCCN)NC(=O)[C@H](CCC(N)=O)NC(=O)[C@H](CCCCN)NC3=O)C(=O)N[C@@H](CC(C)C)C(=O)N[C@@H](CCCCN)C(=O)N[C@@H](C)C(=O)N[C@@H]([C@@H](C)CC)C(=O)NCC(=O)N[C@@H](CO)C(=O)N[C@@H]([C@@H](C)CC)C(=O)N[C@@H](Cc1ccccc1)C(=O)NCC(=O)N[C@@H](CCCCN)C(=O)N2 [compound 91] (H-NID[Nle]RCSASVECKQKCLKAIGSIFGKC[Nle]NKKCKCYPR-OH; disulfide 6-27, 12-32, 16-34) | – | >11300 | 7756 | >11300 | 1.2 | 39.6%
